Measurements published in US10138282B2, “Peptide antagonist of LL-37” (INDIANA UNIVERSITY RESEARCH AND TECHNOLOGY CORPORATION, priority 2014, dated 2018).
Entries after “also recorded” stand apart in the source; their conditions may differ.

Key:
in vitro = assay type: cell-based; settings: human, Half-life of LL-37 in cells
Method: Acidification of endosomes can activate cathepsins that can cleave TLR3, 7, and 9 and increase signaling. We examined whether LL-37 would be subject to proteolysis, possibly by cathepsins. BEAS-2B cells were treated with LL-37 in the absence or presence of poly(I:C) for 15 min, then washed with phosphate-buffered saline and incubated with fresh medium. The cells were harvested over time, lysed and subjected to Western blot analysis. LL-37 accumulation decreased over time, with an estimated half-life of 1 h (FIG. 4A, 4B). Cells treated with ammonium chloride or the cathepsin inhibitor Z-FA-FMK had half-lives in excess of 12 h (FIG. 4A, 4B).

[1] = Dynamic light scatter spectroscopy, hydrodynamic radius; assay type: physicochemical
Method: The hydrodynamic radii of LL-37 and other peptides were monitored by a Zetasizer Nano-S instrument (Malvern Instruments). All measurements were taken with 1 μM of peptide dissolved in phosphate buffer adjusted to the desired pH at 22° C.

f-LL37 = biological target: T1, f-LL37 (Homo sapiens, UniProt P49913); experiment: Fluorescence polarization, interaction of peptides with fluorescein-labeled LL-37; assay type: binding
T1 sequence (P49913 134-170 limits assumed): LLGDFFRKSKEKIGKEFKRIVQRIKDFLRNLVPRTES
Method: (§1) Peptide binding to poly(I:C) was analyzed by monitoring fluorescence polarization using the Synergy H1 microplate reader (BioTek). Fluorescein-labeled LL-37 was titrated to a 100 μL solution containing poly(I:C) and phosphate buffers at different pHs. Interactions between LL-37 and other peptides were analyzed using LL-37 labeled at the N-terminus with fluorescein (0.1 μM), and peptides were titrated from 1 nM to 1000 nM in phosphate buffer at pH 7.0. Interaction between poly(I:C) and different peptides was determined by titrating fluorescein-labeled poly(I:C) (0.1 μM) with peptides added to final concentrations of 10 to 500 nM in phosphate buffer at pH 7.4. All polarization assays were performed in triplicate.

[2] = tested on: Escherichia coli ATCC 25922; experiment: MIC assay, broth microdilution (CLSI); assay type: cell-based; settings: E. coli ATCC 25922
Method: MIC assays were performed according to protocols for broth microdilution according to the Clinical Laboratory Standards Institute (CLSI, 2015. Methods for Dilution Antimicrobial susceptibility tests for bacterial that grow aerobically; Approved standard—tenth edition).

TLR3 = experiment: Confocal microscopy, co-localization with TLR3 in BEAS-2B cells; assay type: cell-based, human
Method: Cells were grown on poly-L-lysine coated coverslips to 60% confluency. After 1 h incubation with fluorescently-labeled peptides in the absence or presence of poly(I:C), the cells were washed with PBS and fixed with 4% paraformaldehyde for 15 min at room temperature. The cells were again washed with PBS and mounted on glass slides with anti-fade mounting medium and DAPI (Life Technology), then dried overnight in the dark. Micrographs were acquired with a Leica TCS SP5 confocal inverted-base microscope with a 63× oil objective. Images were analyzed by Leica LAS AF and Image J software. Colocalization of fluorophores was quantified using the Image J plug-in tool JACoP (16).
We examined whether it could prevent the trafficking of LL-37/poly(I:C) to endosomes that harbor TLR3. Confocal microscopy was used to examine the effect of LL-29 on the colocalization of LL-37/poly(I:C) with TLR3 in BEAS-2B cells.

FPRL-1 receptor = biological target: T2, FPRL-1 receptor (Homo sapiens, UniProt P25090); experiment: IL-6 production in BEAS-2B cells knocked down with siRNA (FPRL-1, EGFR, control); assay type: cell-based
T2 construct: a human lung epithelial cell line that expresses endogenous FPRL-1; endogenous in cells; host or cells: BEAS-2B
T2 sequence (P25090 1-351): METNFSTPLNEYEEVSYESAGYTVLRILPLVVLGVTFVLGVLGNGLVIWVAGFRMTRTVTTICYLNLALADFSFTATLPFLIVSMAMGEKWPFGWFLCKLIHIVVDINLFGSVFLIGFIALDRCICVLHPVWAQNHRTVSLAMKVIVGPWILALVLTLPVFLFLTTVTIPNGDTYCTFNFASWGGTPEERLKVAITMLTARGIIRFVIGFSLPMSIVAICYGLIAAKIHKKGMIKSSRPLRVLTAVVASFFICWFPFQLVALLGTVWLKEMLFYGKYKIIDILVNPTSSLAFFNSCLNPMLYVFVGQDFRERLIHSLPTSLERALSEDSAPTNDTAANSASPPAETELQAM
Method: BEAS-2B cells were seeded at 2×10^6 cells per 6-well plate for 6 h prior to transfection with 30 nM of a pool of three siRNAs from Santa Cruz Biotechnology. Transfections were done using Lipofectamine 2000.
Cells were grown on poly-L-lysine (Life Technologies). The level of target mRNA was analyzed using qRT-PCR and normalized to the levels of GAPDH mRNA. The sequences of the primers will be made available upon request. Poly(I:C) was added 48 h after siRNA transfection and IL-6 levels in the culture media were collected 24 h later.
LL-37's enhancement of TLR3 signaling required trafficking of LL-37/poly(:C) to endosomes via the FPRL-1 receptor. Therefore, we examined whether LL-29 used the FPRL-1 receptor to enter cells. siRNA was used to knock down the expression of either FPRL-1, EGFR, or TLR3. […] Co-localization of fLL-37 and rpIC was reduced to less than a third of the control. […] Knockdowns performed with siRNAs to either a nonspecific control or EGFR had no effect on the enhancement of IL-6 production.
Will LL-29 affect the use of the FPRL-1 receptor by the LL-37/poly(I:C) complex? BEAS-2B cells knocked down for FPRL-1 were treated with LL-37 along with additional concentrations of LL-37, Pentamide, LL-29, Peptide A, or LL8-37 (FIG. 6C). Signaling by TLR3 was determined by the amount of IL-6 secreted in the cell culture media. A control siRNA had no effect on WT LL-37/poly(I:C) enhancement of IL-6 production.
LL-37 uses the Formyl peptide receptor-like 1 (FPRL-1) receptor to deliver nucleic acids into endosomes, where activation of the Toll-like receptors that recognize nucleic acids takes place (Singh et al., 2014). We sought to determine whether the LL-37 orthologs from other mammals could also use the FPRL-1 in the human BEAS-2B cells to deliver dsRNA. BEAS-2B cells were treated with poly(I:C) along with the peptides and the peptides from pig, sheep, rabbit, and mouse had reduced ability to use the FPRL-1 to activate IL-6 production.

[3] = tested on: LL-37 enhancement of TLR3 signaling; experiment: Antagonism of LL-37/poly(I:C)-enhanced IL-6 production in BEAS-2B cells; assay type: cell-based, human
Method: (§2) IL-6 production was quantified by ELISA using the OptEIA™ kit (BD Biosciences). A typical assay used 2×10^4 BEAS-2B cells/well grown for 24 h in flat bottom 96-well plates. Poly(I:C) was added to a final concentration of 0.13 μg/ml. Antimicrobial peptides were added to the cell culture medium to a final concentration of 3 μM unless specified otherwise. All ELISA results shown were performed in triplicate and in at least three independent experiments.
We examined whether LL-29 could affect the enhancement of TLR3 signaling by WT LL-37/poly(I:C). An increasing amount of LL-29 along with a constant amount of LL-37/poly(I:C) was used to assess IL-6 production in BEAS-2B cells. […] That is, LL-29 abrogated LL-37's ability to enhance TLR3 signaling. That is, LL-29 is an example of a peptide antagonist of LL-37 function.

TLR4 signaling = experiment: IL-6 production (ELISA) in BEAS-2B cells induced with LPS; assay type: cell-based, human
Method: as §2
(§3) To better define how residues in LL-37 contribute to function, several variants derived from LL-37 were tested for: 1) repression of TLR4 signaling by LPS, 2) enhancement of TLR3 signaling by poly(I:C), and 3) binding to LL-37. Signaling by TLR3 and TLR4 were monitored using ELISA to detect IL-6 secreted into the medium of BEAS-2B cells.

TLR3 signaling = experiment: IL-6 production (ELISA) in BEAS-2B cells induced with poly(I:C); assay type: cell-based, human; settings: BEAS-2B cells induced with 130 ng/ml of poly(I:C); LL-37 100
Method: as §2, §3

poly(I:C) = experiment: Fluorescence polarization, peptide binding to poly(I:C)
Method: as §1
LL-37 accompanies dsRNA to endosomes containing TLR3. However, it is unknown whether LL-37 will release the dsRNA in endosomes. Johansson et al. (1998) have previously determined that a neutral pH is required for the activity of LL-37. We seek to determine whether LL-37 binding to dsRNA can be affected by pH.

Compound: CC[C@H](C)[C@H](NC(=O)[C@H](CCCCN)NC(=O)[C@H](CCC(=O)O)NC(=O)[C@H](CCCCN)NC(=O)[C@H](CO)NC(=O)[C@H](CCCCN)NC(=O)[C@H](CCCNC(=N)N)NC(=O)[C@H](Cc1ccccc1)NC(=O)[C@H](Cc1ccccc1)NC(=O)[C@H](CC(=O)O)NC(=O)CNC(=O)[C@H](CC(C)C)NC(=O)[C@@H](N)CC(C)C)C(=O)NCC(=O)N[C@@H](CCCCN)C(=O)N[C@@H](CCC(=O)O)C(=O)N[C@@H](Cc1ccccc1)C(=O)N[C@@H](CCCCN)C(=O)N[C@@H](CCCNC(=N)N)C(=O)N[C@H](C(=O)N[C@H](C(=O)N[C@@H](CCC(N)=O)C(=O)N[C@@H](CCCNC(=N)N)C(=O)N[C@H](C(=O)N[C@@H](CCCCN)C(=O)N[C@@H](CC(=O)O)C(=O)N[C@@H](Cc1ccccc1)C(=O)N[C@@H](CC(C)C)C(=O)N[C@@H](CCCNC(=N)N)C(=O)N[C@@H](CC(N)=O)C(=O)N[C@@H](CC(C)C)C(=O)N[C@H](C(=O)N1CCC[C@H]1C(=O)N[C@@H](CCCNC(=N)N)C(=O)N[C@H](C(=O)N[C@@H](CCC(=O)O)C(=O)N[C@@H](CO)C(=O)O)[C@@H](C)O)C(C)C)[C@@H](C)CC)C(C)C)[C@@H](C)CC [LL-37]
- half-life (in vitro): ~60 min
- half-life (in vitro; cells or culture medium): ~60 min

Compound: LLGDFFRKSKEKIGKEFKRIVQRIKDFLR ((1)..(29) LL29; listed as Homo sapiens) [LL-29]
- Hydrodynamic radius (nm) pH 5.8 ([1]; 1.0 μM peptide, phosphate buffer pH 5.8): 8 nm
- Hydrodynamic radius (nm) pH 7.4 ([1]; 1.0 μM peptide, phosphate buffer pH 7.4): 1106 nm
- pH-dependent dissociation of peptide particles, in words ([1]; acidification of phosphate buffer): readily dissociated into nanometer-sized particles; also recorded: dissociated as a function of pH
- Interaction with fLL-37, in words (f-LL37): interacted with fLL-37 to the same degree as LL-37; also recorded: comparable ability to interact with fLL-37
- MIC assay result, peptide without antibiotic ([2]; peptide 10 μg/ml, antibiotic: None): growth
- MIC (μg/ml) of Doxorubicin in the presence of peptide ([2]; peptide final conc. 10 μg/ml): ≤0.06 µg/mL
- MIC (μg/ml) of Kanamycin in the presence of peptide ([2]; peptide final conc. 10 μg/ml): ≤0.5 µg/mL
- MIC (μg/ml) of Trimethoprim in the presence of peptide ([2]; peptide final conc. 10 μg/ml): ≤0.06 µg/mL
- Improvement of the MIC of antibiotics by peptide ([2]; with doxorubicin, kanamycin, trimethoprim): at least 4 fold
- Effect of added peptide on co-localization of fLL-37 and TLR3, in words (TLR3; added to fLL-37 and poly(I:C)): reduced the co-localization between fLL-37 and TLR3
- IL-6 production, peptide with poly(I:C), in words (FPRL-1 receptor; knockdown of either FPRL-1 or EGFR): did not enhance IL-6 production
- IL-6 production, peptide added along with LL-37 and poly(I:C), in words (FPRL-1 receptor; siRNA to FPRL-1 or nonspecific control): resulted in a reduction in IL-6 levels
- IL-6 production with LL-37/poly(I:C) at four molar excess of peptide, in words ([3]; four molar excess of LL-29 relative to LL-37): comparable to the level observed in the absence of LL-37
- Antagonism of LL-37 enhancement of TLR3 signaling (IL-6), in words ([3]; peptide added with LL-37/poly(I:C), BEAS-2B cells): reduced the enhancement of TLR3 signaling by LL-37 in a concentration-dependent manner
- Suppression of TLR4 signaling / LPS-induced IL-6, in words (TLR4 signaling; BEAS-2B cells): retained the ability to suppress TLR4 signaling in response to LPS
- IL-6 production (%) LPS-depend. (TLR4 signaling; BEAS-2B cells induced with 1.0 μg/ml of LPS, LL-37 100): 143 ± 18%
- IL-6 production in response to LPS, % of the control level without either of the two peptides (TLR4 signaling; four molar excess of LL-29 to LL-37, BEAS-2B cells): 64%
- IL-6 production (%) poly(I:C)-depend. (TLR3 signaling): 47 ± 3%

Compound: fLL-37: 5′ carboxyfluorescein coupled to the N-terminus of LL-37 [reference compound]
- Co-localization of peptide with TLR3, in words (TLR3; with poly(I:C)): found to colocalize with TLR3
- Binding to poly(I:C)/dsRNA in fluorescent polarization assay, in words (poly(I:C)): polarization increased as a function of poly(I:C) concentration
